According to patent US20250136578A1 (Kolm Therapeutics Inc., priority 2023, published 2025):

What was measured:
[1] = system: VCaP cells; assay: VCaP growth inhibition assay (CTG); assay type: cell-based; conditions: Homo sapiens, 216 h, 30 pM R1881, 9 days
Summary of the method: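 VCaP cells in phenol red-free DMEM with 5% charcoal-stripped serum were stimulated with 30 pM R1881 (final) and treated with compound from 100 nM to 10 fM final (1:5 dilutions) for 9 days at 37 °C. Viability was read by CellTiter-Glo luminescence, and IC50 came from 4-parameter logistic fits.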

[2] = target: AR / CBP ternary complex (Homo sapiens, UniProt P10275+Q92793); assay: Ternary complex formation assay (sandwich ELISA, AR capture, CBP antibody detection) in VCaP cell lysates; assay type: cell-based; conditions: treated 1.5 hours, rabbit CBP or p300 antibody detection, average, read-out: Average Ternary Complex
Summary of the method: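 VCaP cells in 5% charcoal-stripped FBS were cultured ≥3 days and then given bifunctional compound for 1.5 h. Lysates went onto AR-antibody-coated plates. Bound CBP (or p300) was detected with a rabbit antibody plus HRP anti-rabbit, using QuantaRed chemifluorescence (ex 570/em 585) read immediately, at 5 min and at 15 min.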

Chain of AR / CBP ternary complex (P10275 whole entry): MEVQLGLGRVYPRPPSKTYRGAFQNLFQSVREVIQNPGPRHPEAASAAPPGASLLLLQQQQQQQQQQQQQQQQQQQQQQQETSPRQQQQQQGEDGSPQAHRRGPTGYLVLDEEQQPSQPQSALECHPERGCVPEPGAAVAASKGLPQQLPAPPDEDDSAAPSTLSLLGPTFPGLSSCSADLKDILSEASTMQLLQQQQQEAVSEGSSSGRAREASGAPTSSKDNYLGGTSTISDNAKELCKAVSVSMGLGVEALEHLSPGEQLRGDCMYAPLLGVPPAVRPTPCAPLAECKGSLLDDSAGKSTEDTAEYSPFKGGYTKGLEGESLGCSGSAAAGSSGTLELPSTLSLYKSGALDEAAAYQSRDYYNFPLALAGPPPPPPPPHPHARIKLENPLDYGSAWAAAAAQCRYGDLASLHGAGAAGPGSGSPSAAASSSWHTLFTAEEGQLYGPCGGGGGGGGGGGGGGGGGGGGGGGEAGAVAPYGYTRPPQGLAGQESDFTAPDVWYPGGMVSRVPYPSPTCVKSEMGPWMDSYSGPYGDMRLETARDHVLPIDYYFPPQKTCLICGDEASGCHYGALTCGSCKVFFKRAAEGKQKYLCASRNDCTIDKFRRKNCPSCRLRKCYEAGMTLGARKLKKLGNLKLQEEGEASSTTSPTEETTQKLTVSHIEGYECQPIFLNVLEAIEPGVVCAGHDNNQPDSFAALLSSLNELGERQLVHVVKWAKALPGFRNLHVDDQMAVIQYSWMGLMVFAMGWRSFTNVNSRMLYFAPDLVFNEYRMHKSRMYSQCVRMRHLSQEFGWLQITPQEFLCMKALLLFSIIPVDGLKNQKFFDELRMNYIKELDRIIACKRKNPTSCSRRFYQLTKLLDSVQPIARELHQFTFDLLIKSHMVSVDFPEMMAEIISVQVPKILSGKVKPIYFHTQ
Chain of AR / CBP ternary complex (Q92793 2-2442): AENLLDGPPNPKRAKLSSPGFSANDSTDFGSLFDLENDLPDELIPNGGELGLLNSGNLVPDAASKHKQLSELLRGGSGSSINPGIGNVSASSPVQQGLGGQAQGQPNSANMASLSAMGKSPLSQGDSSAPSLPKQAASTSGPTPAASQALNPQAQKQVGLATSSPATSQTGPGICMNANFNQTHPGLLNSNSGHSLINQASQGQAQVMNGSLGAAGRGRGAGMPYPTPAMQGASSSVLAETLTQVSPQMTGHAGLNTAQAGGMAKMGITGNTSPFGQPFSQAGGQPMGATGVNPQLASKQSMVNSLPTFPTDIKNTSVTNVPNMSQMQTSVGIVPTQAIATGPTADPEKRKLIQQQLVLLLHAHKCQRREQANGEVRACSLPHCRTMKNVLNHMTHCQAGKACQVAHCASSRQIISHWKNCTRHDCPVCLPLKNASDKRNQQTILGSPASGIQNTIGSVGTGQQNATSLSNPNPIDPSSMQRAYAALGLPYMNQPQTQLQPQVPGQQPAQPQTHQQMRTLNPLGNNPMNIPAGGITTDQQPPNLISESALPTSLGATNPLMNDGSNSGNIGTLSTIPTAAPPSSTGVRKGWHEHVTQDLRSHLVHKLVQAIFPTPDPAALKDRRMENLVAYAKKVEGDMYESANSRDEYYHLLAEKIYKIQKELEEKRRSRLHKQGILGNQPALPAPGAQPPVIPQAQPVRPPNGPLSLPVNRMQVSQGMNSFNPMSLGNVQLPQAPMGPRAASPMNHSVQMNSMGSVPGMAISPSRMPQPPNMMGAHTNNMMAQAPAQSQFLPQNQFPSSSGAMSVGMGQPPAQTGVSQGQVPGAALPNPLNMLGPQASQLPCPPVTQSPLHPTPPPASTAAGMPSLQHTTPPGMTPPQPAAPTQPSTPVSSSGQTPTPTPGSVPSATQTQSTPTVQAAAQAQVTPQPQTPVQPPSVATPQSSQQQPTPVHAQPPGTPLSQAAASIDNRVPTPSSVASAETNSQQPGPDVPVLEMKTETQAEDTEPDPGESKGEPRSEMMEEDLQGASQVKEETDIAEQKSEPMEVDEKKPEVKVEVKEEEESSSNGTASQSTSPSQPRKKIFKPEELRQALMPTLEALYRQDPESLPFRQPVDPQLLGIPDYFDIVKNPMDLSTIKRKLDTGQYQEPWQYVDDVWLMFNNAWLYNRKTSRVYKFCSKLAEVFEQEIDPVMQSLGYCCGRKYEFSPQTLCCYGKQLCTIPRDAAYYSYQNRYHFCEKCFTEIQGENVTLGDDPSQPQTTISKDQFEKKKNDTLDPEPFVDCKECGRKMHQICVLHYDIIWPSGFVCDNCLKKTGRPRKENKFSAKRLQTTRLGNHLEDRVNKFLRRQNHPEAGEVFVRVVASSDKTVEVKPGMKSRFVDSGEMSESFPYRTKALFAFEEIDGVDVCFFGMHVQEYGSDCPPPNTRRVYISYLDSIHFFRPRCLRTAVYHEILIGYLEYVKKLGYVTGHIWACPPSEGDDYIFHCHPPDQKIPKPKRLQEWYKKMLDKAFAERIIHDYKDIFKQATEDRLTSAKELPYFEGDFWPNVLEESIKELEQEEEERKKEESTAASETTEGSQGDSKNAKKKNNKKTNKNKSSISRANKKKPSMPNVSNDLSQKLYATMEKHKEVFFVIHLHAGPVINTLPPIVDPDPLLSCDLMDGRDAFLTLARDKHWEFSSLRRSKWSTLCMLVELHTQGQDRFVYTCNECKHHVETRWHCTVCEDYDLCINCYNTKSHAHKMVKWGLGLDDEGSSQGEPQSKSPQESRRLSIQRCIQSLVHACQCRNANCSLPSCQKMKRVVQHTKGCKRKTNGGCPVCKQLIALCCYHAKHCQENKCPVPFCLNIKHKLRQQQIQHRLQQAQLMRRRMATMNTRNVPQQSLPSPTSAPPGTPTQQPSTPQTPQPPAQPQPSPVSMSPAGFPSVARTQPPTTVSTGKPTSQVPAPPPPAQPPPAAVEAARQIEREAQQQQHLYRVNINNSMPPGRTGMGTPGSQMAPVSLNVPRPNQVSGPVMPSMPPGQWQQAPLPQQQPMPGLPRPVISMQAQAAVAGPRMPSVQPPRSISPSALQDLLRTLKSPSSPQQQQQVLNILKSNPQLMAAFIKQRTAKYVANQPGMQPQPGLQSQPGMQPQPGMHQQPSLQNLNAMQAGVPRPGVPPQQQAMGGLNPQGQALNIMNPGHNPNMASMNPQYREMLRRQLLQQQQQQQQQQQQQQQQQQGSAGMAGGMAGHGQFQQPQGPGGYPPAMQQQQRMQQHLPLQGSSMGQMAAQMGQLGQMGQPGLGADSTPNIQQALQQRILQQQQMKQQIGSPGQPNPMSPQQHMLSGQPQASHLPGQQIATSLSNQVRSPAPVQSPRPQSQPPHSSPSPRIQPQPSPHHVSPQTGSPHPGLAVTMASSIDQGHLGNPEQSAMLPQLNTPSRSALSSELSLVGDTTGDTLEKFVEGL

| IC50 [1] [nM] | EC50 [2] [nM] | SMILES |
| --- | --- | --- |
| ≤ 0.1 | < 1 | CC(=O)N1CCc2c(c(N3CCCc4cc(-c5cnn(C)c5)c(C(F)F)cc43)nn2C2CCN(C3CC4(C3)CN(c3ccc(C(=O)N[C@H]5CC[C@H](Oc6ccc(C#N)c(Cl)c6)CC5)nn3)C4)CC2)C1 [Compound 229, 6-[6-[4-[5-acetyl-3-[7-(difluoromethyl)-6-(1-methylpyrazol-4-yl)-3,4-dihydro-2H-quinolin-1-yl]-6,7-dihydro-4H-pyrazolo[4,3-c]pyridin-1-yl]-1-piperidyl]-2-azaspiro[3.3]heptan-2-yl]-N-[4-(3-chloro-4-cyano-phenoxy)cyclohexyl]pyridazine-3-carboxamide] |
| ≤ 0.1 | < 1 | CC(=O)N1CCc2c(c(N3CCCc4cc(-c5cnn(C)c5)c(C(F)F)cc43)nn2C2CCN(CC3CCN(c4ccc(C(=O)N[C@H]5CC[C@H](Oc6ccc(C#N)c(Cl)c6)CC5)nn4)CC3(C)C)CC2)C1 (stereo partly shown) [Compound 230, 6-[4-[[4-[5-acetyl-3-[7-(difluoromethyl)-6-(1-methylpyrazol-4-yl)-3,4-dihydro-2H-quinolin-1-yl]-6,7-dihydro-4H-pyrazolo[4,3-c]pyridin-1-yl]-1-piperidyl]methyl]-3,3-dimethyl-1-piperidyl]-N-[4-(3-chloro-4-cyano-phenoxy)cyclohexyl]pyridazine-3-carboxamide] |
| ≤ 0.1 | < 1 | CC(=O)N1CCc2c(c(N3CCCc4cc(-c5cnn(C)c5)c(C(F)F)cc43)nn2C2CCN(CC3CCN(c4ccc(C(=O)N[C@H]5CC[C@H](Oc6ccc(C#N)c(Cl)c6)CC5)nn4)CC34CC4)CC2)C1 (stereo partly shown) [Compound 231, 6-[8-[[4-[5-acetyl-3-[7-(difluoromethyl)-6-(1-methylpyrazol-4-yl)-3,4-dihydro-2H-quinolin-1-yl]-6,7-dihydro-4H-pyrazolo[4,3-c]pyridin-1-yl]-1-piperidyl]methyl]-5-azaspiro[2.5]octan-5-yl]-N-[4-(3-chloro-4-cyano-phenoxy)cyclohexyl]pyridazine-3-carboxamide] |
| 1 to 100 | 1 to 10 | COC(=O)N1c2ccc3c(nc(Cc4ccccc4)n3[C@H]3CCC[C@H](CN4CCN(c5ccc(C(=O)N[C@H]6CC[C@H](Oc7ccc(C#N)c(Cl)c7)CC6)nn5)CC4)C3)c2CC[C@@H]1C [Compound 232, methyl (7S)-2-benzyl-3-[(1S,3S)-3-[[4-[6-[[4-(3-chloro-4-cyano-phenoxy)cyclohexyl]carbamoyl]pyridazin-3-yl]piperazin-1-yl]methyl]cyclohexyl]-7-methyl-8,9-dihydro-7H-imidazo[4,5-f]quinoline-6-carboxylate] |
| ≤ 0.1 | < 1 | CC(=O)N1CCc2c(c(N3CCCc4cc(-c5cnn(C)c5)c(C(F)F)cc43)nn2C2CCN(C[C@@H]3CCN(c4ccc(C(=O)N[C@H]5CC[C@H](Oc6ccc(C#N)c(Cl)c6)CC5)nn4)C[C@@H]3C)CC2)C1 [Compound 233] |
| ≤ 0.1 | < 1 | CC(=O)N1CCc2c(c(N3CCCc4cc(-c5cnn(C)c5)c(C(F)F)cc43)nn2C2CCN(C[C@H]3CCN(c4ccc(C(=O)N[C@H]5CC[C@H](Oc6ccc(C#N)c(Cl)c6)CC5)nn4)C[C@H]3C)CC2)C1 [Compound 234] |
| ≤ 0.1 | < 1 | CC(=O)N1CCc2c(c(N3CCCc4cc(-c5cnn(C)c5)c(C(F)F)cc43)nn2C2CCC3(CC2)CN(C2CN(c4ccc(C(=O)N[C@H]5CC[C@H](Oc6ccc(C#N)c(Cl)c6)CC5)nn4)C2)C3)C1 [Compound 237] |
| ≤ 0.1 | < 1 | CC(=O)N1CCc2c(c(N3CCCc4cc(-c5cnn(C)c5)c(C(F)F)cc43)nn2C2CCC3(CC2)CN(C2CCN(c4ccc(C(=O)N[C@H]5CC[C@H](Oc6ccc(C#N)c(Cl)c6)CC5)nn4)CC2)C3)C1 [Compound 238, 6-[4-[7-[5-acetyl-3-[7-(difluoromethyl)-6-(1-methylpyrazol-4-yl)-3,4-dihydro-2H-quinolin-1-yl]-6,7-dihydro-4H-pyrazolo[4,3-c]pyridin-1-yl]-2-azaspiro[3.5]nonan-2-yl]-1-piperidyl]-N-[4-(3-chloro-4-cyano-phenoxy)cyclohexyl]pyridazine-3-carboxamide] |
